# Measured values: patent US6232347A, “Treatment of osteoarthritis” (Knoll Pharmaceutical Company, priority 2000, dated 2001)
# Tested on: reuptake of all three monoamines
# Experiment: monoamine reuptake inhibition profile (summary in words of Table 1)
# Type: biochemical, rat
# Details: with reference to Table 1, sibutramine through its pharmacologically active metabolites
structure (smiles),measurement,value
"CC(C)CC(N(C)C)C1(c2ccc(Cl)cc2)CCC1 (stereo not shown) [Sibutramine, N,N-dimethyl-1-[1-(4-chlorophenyl)cyclobutyl]-3-methylbutylamine]",inhibition of monoamine reuptake / selectivity profile,inhibits the reuptake of all three monoamines
